In US12662451B2, “Chemical compounds and uses thereof” (GLAXOSMITHKLINE INTELLECTUAL PROPERTY (NO.4) LIMITED, priority 2023, dated 2026):
Where two headings read alike, the source gives them in different places.

Assays:
[1] = Cell culture media unbound percentage and stability by rapid equilibrium dialysis (Example C); type: in vitro ADME; conditions: bovine, cell assay medium (RPMI-1640 with 10% fetal bovine serum), pH 7.4, rapid equilibrium dialysis, 4 hours at 37° C., read-out: Cell Culture Media Binding (% unbound)
In short: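 Compound spiked into cell culture medium at nominal 1 μM and dialysed against PBS (100 mM sodium phosphate + 150 mM NaCl, pH 7.4) by rapid equilibrium dialysis, triplicate, 4 h at 37° C with shaking. LC-MS/MS peak area ratios gave percent unbound (receiver/donor) and percent stability (240 min vs 0 min).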

[2] = tested on: SW48 human colorectal cancer cells (MSI-H cancer cells); test: SW48 cell viability, CellTiter-Glo, 120 hours (Example B); conditions: for CC50: Homo sapiens
[3] = tested on: SW48 human colorectal cancer cells; test: Calculated free drug potency in SW48 cell assay, corrected with media free fraction (Example C); type: cell-based; conditions: for CC50: Homo sapiens, SW48, SW48 pCC50 corrected with measured free fraction in cell assay media
In short: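 Compound spiked at nominal 1 μM into cell assay medium and dialysed against PBS (100 mM sodium phosphate, 150 mM NaCl, pH 7.4) by rapid equilibrium dialysis, 4 h, 37 °C, shaking. Percent unbound from LC-MS/MS peak area ratios (240 min vs 0 min); cell assay concentrations corrected by this free fraction.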

[4] = molecular target: T1, recombinant full-length WRN protein (1-1432) (Homo sapiens, UniProt Q14191); test: WRN unwinding activity, fluorogenic 384-well assay (Example A); type: biochemical; conditions: WRN unwinding activity, 4 hr; Table 2; read-out: 4 hr UNW pIC50 (converted)
T1 construct: recombinant full-length WRN protein (1-1432)
In short: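 200 pM enzyme (2× stock) preincubated with compound 4 h at ambient temperature, then 200 μM ATP and 12 nM quenched TAMRA-labelled dsDNA (2× stocks) added for 60 min; EDTA-quenched. Buffer 25 mM Tris pH 8.0, 5 mM NaCl, 2 mM MgCl2. Fluorescence at 525/598 nm; pIC50 from four-parameter fit.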

[5] = SW48, 120 h, read-out: SW48 pCC50, SW48 cell viability, 120 hours incubation (converted), Table 2
[6] = SW48, read-out: SW48 pCC50, measured potency from Example B, as repeated in Table 3 (converted)

T1 sequence (Q14191 whole entry): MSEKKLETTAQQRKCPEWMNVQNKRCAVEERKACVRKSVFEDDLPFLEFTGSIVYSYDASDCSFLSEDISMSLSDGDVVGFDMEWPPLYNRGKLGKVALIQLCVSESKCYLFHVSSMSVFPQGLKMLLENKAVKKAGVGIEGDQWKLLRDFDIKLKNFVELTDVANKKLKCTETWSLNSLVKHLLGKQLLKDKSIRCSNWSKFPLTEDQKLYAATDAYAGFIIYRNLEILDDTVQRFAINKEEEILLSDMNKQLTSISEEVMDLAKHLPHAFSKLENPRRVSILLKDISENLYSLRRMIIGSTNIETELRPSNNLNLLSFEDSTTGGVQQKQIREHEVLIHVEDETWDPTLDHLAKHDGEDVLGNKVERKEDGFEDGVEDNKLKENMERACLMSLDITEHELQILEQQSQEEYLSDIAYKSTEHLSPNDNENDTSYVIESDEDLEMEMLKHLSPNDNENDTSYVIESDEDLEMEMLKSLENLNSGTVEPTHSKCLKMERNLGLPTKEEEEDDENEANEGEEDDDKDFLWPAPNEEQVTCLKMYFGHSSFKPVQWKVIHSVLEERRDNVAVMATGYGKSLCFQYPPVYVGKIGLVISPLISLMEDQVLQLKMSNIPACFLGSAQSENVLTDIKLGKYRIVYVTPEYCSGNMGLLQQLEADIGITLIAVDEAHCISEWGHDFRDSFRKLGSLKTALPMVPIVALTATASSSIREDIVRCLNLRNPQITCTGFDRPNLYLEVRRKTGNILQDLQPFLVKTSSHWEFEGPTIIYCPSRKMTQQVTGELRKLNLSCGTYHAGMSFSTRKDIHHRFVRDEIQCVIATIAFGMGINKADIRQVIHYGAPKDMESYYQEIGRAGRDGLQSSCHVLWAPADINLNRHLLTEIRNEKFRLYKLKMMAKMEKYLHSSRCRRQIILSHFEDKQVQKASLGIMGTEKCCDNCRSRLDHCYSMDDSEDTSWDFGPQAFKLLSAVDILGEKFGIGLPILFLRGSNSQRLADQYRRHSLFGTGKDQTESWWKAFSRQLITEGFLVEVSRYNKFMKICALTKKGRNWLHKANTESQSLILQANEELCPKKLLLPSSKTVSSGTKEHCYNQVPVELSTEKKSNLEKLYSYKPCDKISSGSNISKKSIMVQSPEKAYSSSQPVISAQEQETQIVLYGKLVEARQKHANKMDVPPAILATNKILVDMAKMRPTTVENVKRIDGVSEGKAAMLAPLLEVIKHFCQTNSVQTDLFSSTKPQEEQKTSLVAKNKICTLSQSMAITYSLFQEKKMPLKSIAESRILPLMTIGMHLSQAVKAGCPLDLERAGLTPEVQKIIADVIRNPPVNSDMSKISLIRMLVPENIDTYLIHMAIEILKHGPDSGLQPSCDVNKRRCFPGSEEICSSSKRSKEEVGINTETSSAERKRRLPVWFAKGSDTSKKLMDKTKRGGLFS

Row | Structure (SMILES) | fraction unbound at 4 h, 1 µM [1] | IC50 [4] | CC50 [2, 5] | CC50 [2, 6] | CC50 [3] | SW48 pCC50 ([2]; SW48 cell viability, 120 hours incubation, Table 2) | SW48 pCC50 ([2]; measured potency from Example B, as repeated in Table 3) | Free Drug SW48 pCC50 ([3]; SW48 pCC50 corrected with measured free fraction in cell assay media)
1 | CN(c1ccc([C@H]2CCC[C@@H](C(=O)Nc3ccc(C(F)(F)F)cc3F)[C@@H]2C(=O)O)cc1)S(=O)(=O)c1cccc(C2CC2(F)F)c1 (stereo partly drawn) [Example 120, (1R,2S,6R)-2-(4-((3-(2,2-difluorocyclopropyl)-N-methylphenyl)sulfonamido)phenyl)-6-((2-fluoro-4-(trifluoromethyl)phenyl)carbamoyl)cyclohexane-1-carboxylic acid] | 0.0107 | 10 nM | 3160 nM | 3160 nM | 33.9 nM |  |  | 
2 | CN(c1ccc([C@H]2CCC[C@@H](C(=O)Nc3ccc(C(F)(F)F)cc3F)[C@@H]2C(=O)O)cc1)S(=O)(=O)c1ccccc1 [Example 109, (1R,2R,6S)-2-((2-fluoro-4-(trifluoromethyl)phenyl)carbamoyl)-6-(4-(N-methylphenylsulfonamido)phenyl)cyclohexane-1-carboxylic acid] | 0.0829 | 1 nM | 1260 nM | 1260 nM | 105 nM |  |  | 
3 | Cc1nc2cc(S(=O)(=O)N(C)c3ccc([C@H]4C[C@@H]5OCC[C@@H]5[C@@H](C(=O)Nc5ccc(C(F)(F)F)cc5F)[C@@H]4C(=O)O)cc3)ccc2n1C (single isomer, unassigned) [Example 157] | 0.242 | 2.51 nM |  |  |  | 6.9 | 6.9 | 7.50
4 | CCc1ccc(NC(=O)[C@@H]2CCC[C@H](c3ccc(N(C)S(=O)(=O)c4ccc5c(c4)nc(C)n5C)cc3)[C@H]2C(=O)O)cc1 [Example 196, (1R,2R,6S)-2-((4-ethylphenyl)carbamoyl)-6-(4-((N,1,2-trimethyl-1H-benzo[d]imidazole)-5-sulfonamido)phenyl)cyclohexane-1-carboxylic acid] | 0.0606 | 3.16 nM | 1580 nM | 1580 nM | 95.5 nM |  |  | 
5 | CN(c1ccc([C@H]2CCC[C@@H](C(=O)Nc3ccc(C(F)(F)F)cc3F)[C@@H]2C(=O)O)cc1)S(=O)(=O)c1ccc2c(c1)nc(C1CC1)n2C [Example 130, (1R,2S,6R)-2-(4-((2-cyclopropyl-N,1-dimethyl-1H-benzo[d]imidazole)-5-sulfonamido)phenyl)-6-((2-fluoro-4-(trifluoromethyl)phenyl)carbamoyl)cyclohexane-1-carboxylic acid] | 0.0326 | 6.31 nM | 501 nM | 501 nM | 16.2 nM |  |  | 
6 | CN1CCC[C@@H](c2cccc(S(=O)(=O)N(C)c3ccc([C@H]4CCC[C@@H](C(=O)Nc5ccc(C(F)(F)F)cc5F)[C@@H]4C(=O)O)cc3)c2)C1 [Example 116, (1R,2R,6S)-2-((2-fluoro-4-(trifluoromethyl)phenyl)carbamoyl)-6-(4-((N-methyl-3-((S)-1-methylpiperidin-3-yl)phenyl)sulfonamido)phenyl)cyclohexane-1-carboxylic acid] | 0.286 | 1.58 nM | 501 nM | 501 nM | 145 nM |  |  | 

Further lines, with some results ahead:

Row | fraction unbound at 4 h, 1 µM [1] | IC50 [4] | Structure (SMILES) | CC50 [2, 5] | CC50 [2, 6] | CC50 [3] | SW48 pCC50 ([2]; SW48 cell viability, 120 hours incubation, Table 2) | SW48 pCC50 ([2]; measured potency from Example B, as repeated in Table 3) | Free Drug SW48 pCC50 ([3]; SW48 pCC50 corrected with measured free fraction in cell assay media)
7 | 0.0658 | 3.16 nM | CN(c1ccc([C@H]2CCC[C@@H](C(=O)Nc3ccc(C(F)(F)F)cc3F)[C@@H]2C(=O)O)cc1)S(=O)(=O)c1ccc2c(c1)nc(Cl)n2C [Example 365, (1R,2S,6R)-2-(4-((2-chloro-N,1-dimethyl-1H-benzo[d]imidazole)-5-sulfonamido)phenyl)-6-((2-fluoro-4-(trifluoromethyl)phenyl)carbamoyl)cyclohexane-1-carboxylic acid] | 398 nM | 398 nM | 26.3 nM |  |  | 
8 | 0.0875 | 1.58 nM | Cc1nc2cc(S(=O)(=O)N(C)c3ccc([C@H]4C[C@@H](CS(C)(=O)=O)C[C@@H](C(=O)Nc5ccc(C(F)(F)F)cc5F)[C@@H]4C(=O)O)cc3)ccc2n1C (relative stereo) [Example 395, rel-(1R,2R,4R,6S)-2-((2-fluoro-4-(trifluoromethyl)phenyl)carbamoyl)-4-((methylsulfonyl)methyl)-6-(4-((N,1,2-trimethyl-1H-benzo[d]imidazole)-5-sulfonamido)phenyl)cyclohexane-1-carboxylic acid] | 1000 nM | 1000 nM | 87.1 nM |  |  | 
9 | 0.0632 | 1.58 nM | CCO[C@@H]1C[C@H](c2ccc(N(C)S(=O)(=O)c3ccc4c(c3)nc(Cl)n4C)cc2)[C@@H](C(=O)O)[C@H](C(=O)Nc2ccc(C(F)(F)F)cc2F)C1 (relative stereo) [Example 361, rel-(1R,2S,4R,6R)-2-(4-((2-chloro-N,1-dimethyl-1H-benzo[d]imidazole)-5-sulfonamido)phenyl)-4-ethoxy-6-((2-fluoro-4-(trifluoromethyl)phenyl)carbamoyl)cyclohexane-1-carboxylic acid] | 501 nM | 501 nM | 31.6 nM |  |  | 
10 | 0.0349 | 12.6 nM | CC(C)c1nc2cc(S(=O)(=O)N(C)c3ccc([C@H]4CCC[C@@H](C(=O)Nc5ccc(C(F)(F)F)cc5F)[C@@H]4C(=O)O)cc3)ccc2n1C [Example 132, (1R,2R,6S)-2-((2-fluoro-4-(trifluoromethyl)phenyl)carbamoyl)-6-(4-((2-isopropyl-N, 1-dimethyl-1H-benzo[d]imidazole)-5-sulfonamido)phenyl)cyclohexane-1-carboxylic acid] | 631 nM | 631 nM | 21.9 nM |  |  | 
11 | 0.071 | 5.01 nM | Cc1nc2cc(S(=O)(=O)N(C)c3ccc([C@H]4C[C@@H](N5CC[C@H](F)C5)C[C@@H](C(=O)Nc5ccc(C(F)(F)F)cc5F)[C@@H]4C(=O)O)cc3)ccc2n1C (stereo in doubt) [Example 377, rel-(1R*,2R*,4R*,6S*)-2-((2-fluoro-4-(trifluoromethyl)phenyl)carbamoyl)-4-((S)-3-fluoropyrrolidin-1-yl)-6-(4-((N,1,2-trimethyl-1H-benzo[d]imidazole)-5-sulfonamido)phenyl)cyclohexane-1-carboxylic acid] | 126 nM | 126 nM | 8.91 nM |  |  | 
12 | 0.326 | 126 nM | Cc1nc2cc(S(=O)(=O)N(C)c3ccc([C@@H]4C[C@H](NCC(F)(F)F)C[C@H](C(=O)Nc5ccc(C(F)(F)F)cc5F)[C@H]4C(=O)O)cc3)ccc2n1C (stereo in doubt) [Example 333, rel-(1R,2R,4R,6S)-2-((2-fluoro-4-(trifluoromethyl)phenyl)carbamoyl)-4-((2,2,2-trifluoroethyl)amino)-6-(4-((N,1,2-trimethyl-1H-benzo[d]imidazole)-5-sulfonamido)phenyl)cyclohexane-1-carboxylic acid] | 10000 nM |  | 3240 nM |  |  | 
13 | 0.208 | 1.58 nM | CN(c1ccc([C@H]2CCC[C@@H](C(=O)Nc3ccc(C(F)(F)F)cc3F)[C@@H]2C(=O)O)cc1)S(=O)(=O)c1ccc2c(c1)nc(CO)n2C [Example 372, (1R,2R,6S)-2-((2-fluoro-4-(trifluoromethyl)phenyl)carbamoyl)-6-(4-((2-(hydroxymethyl)-N,1-dimethyl-1H-benzo[d]imidazole)-5-sulfonamido)phenyl)cyclohexane-1-carboxylic acid] | 200 nM | 200 nM | 41.7 nM |  |  | 
14 | 0.216 | 3.16 nM | Cc1nc2cc(S(=O)(=O)N(C)c3ccc([C@H]4CC(F)(F)C[C@@H](C(=O)Nc5ccc(C(F)(F)F)cc5F)[C@@H]4C(=O)O)cc3)ccc2n1C (relative stereo) [Example 363, rel-(1R,2R,6S)-4,4-difluoro-2-((2-fluoro-4-(trifluoromethyl)phenyl)carbamoyl)-6-(4-((N,1,2-trimethyl-1H-benzo[d]imidazole)-5-sulfonamido)phenyl)cyclohexane-1-carboxylic acid] | 79.4 nM | 79.4 nM | 17 nM |  |  | 
15 | 0.223 | 1.58 nM | CC(=O)N(C)[C@@H]1C[C@H](c2ccc(N(C)S(=O)(=O)c3ccc4c(c3)nc(C)n4C)cc2)[C@@H](C(=O)O)[C@H](C(=O)Nc2ccc(C(F)(F)F)cc2F)C1 (stereo in doubt) [Example 292, rel-(1R,2R,4R,6S)-2-((2-fluoro-4-(trifluoromethyl)phenyl)carbamoyl)-4-(N-methylacetamido)-6-(4-((N,1,2-trimethyl-1H-benzo[d]imidazole)-5-sulfonamido)phenyl)cyclohexane-1-carboxylic acid] | 794 nM | 794 nM | 178 nM |  |  | 
